Test results published in patent US6087336A, “Peptide derivatives useful in treating autoimmune diseases” (Zeneca Limited, priority 1996, dated 2000).

Tests used:
HLA-DR4Dw4 = target: T1, HLA-DR4Dw4 (Homo sapiens, UniProt P01903+P01911, A100K/A169T/F76Y/I96L/K127E/L162R/M171V/N62H/P40V/Q125Y/R42H/S133A/S149N/S66Y/V115G/V209L/W38E); assay: Variant to Test A: peptide selectivity binding assay, HLA-DR4Dw4
T1 construct: a cDNA encoding the β chain is cloned into the transfer vector pAcUW1; made in house; host or cells: Sf21 insect cells, double-recombinant baculovirus
Description: (§1) As a variant to test A, the ability of a peptide of the invention to bind to one or more HLA-DR molecules was assessed as follows:
(§2) (i) Purification of HLA-DR Types from Cell Lines
(§3) The method used was a modification of that described by Gorga et al, 1987, J.Biol.Chem. 262, 16087-16094. Human HLA-DR antigens were purified from various cell lines by immunoaffinity chromatography. […] Protein content was determined by a Biorad protein assay and purity by SDS-PAGE electrophoresis. […]
(§4) 200 nM biotin-FHA307-320 in phosphate buffered saline (PBS) was incubated with either purified HLA-DR1, DR2, DR4Dw4, DR4Dw13 or DR4Dw14, (2-20μg/ml) in V-well microtitre plates (Nunc) with or without inhibitor peptides in assay buffer (PBS, 0.01% NP40 (Sigma.)) For DR3 inhibition, 400 nM Biotin-Ahx-(D)Ala-Ala-Ala-Che-lle-Ala-Ala-Ala-Thr-Leu-Lys-Ala-Ala-(D)Ala-OH was incubated with purified DR3 (20 μg/ml.), and incubated as above. After 48 hours, the incubates were treated, and absorbance readings taken as described in Test A. The inhibitory activity of peptides, expressed as IC50 values, was calculated using Microcal Origin software on a PC.

HLA-DR4Dw14 = assay: Variant to Test A: peptide selectivity binding assay, HLA-DR4Dw14; design: species or system Human
Description: as §1, §2, §3, §4

HLA-DR1 = target: T2, HLA-DR1 (Homo sapiens, UniProt P01903+P01911, A100R/D57E/F55L/F60I/F76Y/I96L/L162R/M171V/P40L/Q125E/R42F/V115G/Y59C); assay: Variant to Test A: peptide selectivity binding assay, HLA-DR1
T2 construct: Human HLA-DR antigens were purified from various cell lines; endogenous in cells; host or cells: Hom 2 cell line
Description: as §1, §2, §3, §4

HLA-DR3 = assay: Variant to Test A: peptide selectivity binding assay, HLA-DR3; design: species or system Human; conditions: did not bind significantly
Description: as §1, §2, §3, §4

Phv-Ala-Arg-Ala-IIb-Ala-Arg-Ala-Papa-NH2 [Example 23]
binding to HLA-DR4Dw4 (HLA-DR4Dw4): bind significantly
binding to HLA-DR4Dw14 (HLA-DR4Dw14): bind significantly
binding to HLA-DR1 (HLA-DR1): bind significantly
IC50 (HLA-DR3): > 100 µM
